{"source": "patent US6242199A", "about": "“Assays for growth hormone secretagogue receptors” (Merck & Co., Inc., priority 1998, dated 2001)", "type_in_all_cases": "cell-based", "key": {"human Type I GHSR": {"tested_on": "human Type I GHSR", "assay": "Aequorin bioluminescence assay in Xenopus oocytes, human Type I GHSR", "conditions": "human Type I cRNA in oocytes; tested from 1 μM down", "method": "(§1) Xenopus laevis oocytes were isolated and injected using standard methods previously described by Arena, et. al. 1991, Mol. Pharmacol. 40, 368-374, which is hereby incorporated by reference. Adult female Xenopus Laevis frogs (purchased from Xenopus One, Ann Arbor, Mich.) were anesthetized with 0.17% tricaine methanesulfonate and the ovaries were surgically removed and placed in a 60 mm culture dish (Falcon) containing OR-2 medium without calcium (82.5 mM NaCl, 2 mM KCl, 2.5 mM sodium pyruvate, 1 mM MgCl2, 100 μ/ml penicillin, 1 mg/ml streptomycin, 5 mM HEPES, pH=7.5; ND-96 from Specialty Media, NJ). Ovarian lobes were broken open, rinsed several times, and oocytes were released from their sacs by collagenase A digestion (Boehringer-Mannheim; 0.2% for 2-3 hours at 18° C.) in calcium-free OR-2. […]\n(§2) The ABA requires injection of library pool cRNA (25 ng/egg for pool sizes of 500 to 10,000) with aequorin cRNA (2 ng/egg) supplemented with the G-protein alpha subunit Gα11 (2 ng/egg). […] Polymerase chain reaction (PCR) was utilized to generate a DNA fragment corresponding to the open reading frame (ORF) of the aequorin cDNA with an optimized Kosak translational initiation sequence (Inouye, S. et. al., 1985, Proc. Natl. Acad. Sci. USA 82:3154-3158). […]"}, "swine Type I GHSR": {"tested_on": "swine Type I GHSR", "assay": "Aequorin bioluminescence assay in Xenopus oocytes, swine Type I GHSR", "conditions": "swine Type I cRNA in oocytes; tested from 1 μM down", "method": "as §1, §2"}, "human Type II GHSR": {"tested_on": "human Type II GHSR", "assay": "Aequorin bioluminescence assay in Xenopus oocytes, human Type II GHSR", "conditions": "human Type II-derived cRNA truncated in TM-6", "method": "as §1, §2"}, "rat GHSR type Ia": {"tested_on": "rat GHSR type Ia", "assay": "Aequorin bioluminescence in transfected 293-AEQ17 (HEK-293) cells, rat GHSR", "conditions": "three replicate samples; mobilization of intracellular calcium", "method": "Functional activity of the ORF construct was assessed by transfecting (using lipofectamine; GIBCO/BRL) 5 μg of plasmid DNA into the aequorin expressing reporter cell line (293-AEQ17) cultured in 60 mm dishes. Following approximately 40 hours of expression the aequorin in the cells was charged for 2 hours with coelenterazine, the cells were harvested, washed and pelleted by low speed centrifugation into luminometer tubes. Functional activity was determined by measuring Compound A dependent mobilization of intracellular calcium and concommitant calcium induced aequorin bioluminescence."}, "[1]": {"tested_on": "swine growth hormone secretagogue receptor (GHSR)", "assay": "Aequorin bioluminescence assay in Xenopus oocytes injected with swine pituitary mRNA / cDNA library pool or clone cRNA", "conditions": "1 μM", "method": "as §1, §2"}}, "data": [{"smiles": "CC(C)(N)C(=O)N[C@H](COCc1ccccc1)C(=O)N1CCC2(CC1)CN(S(C)(=O)=O)c1ccccc12", "note": "[Compound A, (N-[1(R)-[1,2-dihydro-1-methanesulfonlylspiro[3H-indole-3,4'-piperidin]-1'-yl)carbonyl]-2-(phenylmethyloxy)-ethyl]-2-amino-2-methyl-propanamide]", "values": [{"measurement": "lowest Compound A concentration giving a response", "setting": "human Type I GHSR", "value": 0.1, "unit": "nM"}, {"measurement": "lowest Compound A concentration giving a response", "setting": "swine Type I GHSR", "value": 0.1, "unit": "nM"}, {"measurement": "response (in words)", "setting": "human Type II GHSR", "value": "failed to give a response"}, {"measurement": "Compound A induced luminescent response (in words)", "setting": "rat GHSR type Ia", "value": "Compound A induced luminescent responses"}, {"measurement": "bioluminescence response (in words)", "setting": "[1]; clones 7-3 and 28-18", "value": "positive bioluminescence response"}, {"measurement": "bioluminescent signal (in words)", "setting": "[1]; pool P541", "value": "positive bioluminescent signal"}]}]}
